# Experiments:
# [1] = test system: rabbit serum obtained by immunizing a rabbit with the SARS-CoV strain Frankfurt 1; type: binding; parameters: Binding of a rabbit serum to linear peptides / Binding of a rabbit serum to looped peptides / Rabbit serum linear peptides / Rabbit serum looped peptides / Binding of a rabbit serum to linear peptides of protein N of SARS-CoV Urbani (Rabbit serum linear peptides) / Binding of a rabbit serum to looped/cyclic peptides of protein N of SARS-CoV Urbani (Rabbit serum looped peptides): unit not given here
# [2] = test system: recombinant human anti-SARS-CoV antibody 03-018; type: binding; parameters: Binding of antibody 03-018 to linear peptides of the N protein of SARS-CoV Urbani / Binding of antibody 03-018 to looped/cyclic peptides of the N protein of SARS-CoV Urbani: unit not given here
# [3] = test system: control sera (pooled serum of ten healthy LUMC hospital workers; commercial negative donor pooled serum from the Dutch bloodbank); type: binding, human; parameters: Binding of Control serum LUMC to linear peptides / Binding of Control serum Blood-bank to linear peptides / Binding of Control serum LUMC to looped peptides / Binding of Control Serum Blood-Bank to Looped peptides / Binding of Control serum LUMC to linear peptides of the protein M of SARS-CoV Urbani / Binding of Control serum Blood-bank to linear peptides of the protein M of SARS-CoV Urbani / Binding of Control serum LUMC to looped peptides of the protein M of SARS-CoV Urbani / Binding of Control Serum Blood-Bank to Looped peptides of the protein M of SARS-CoV Urbani: unit not given here
# [4] = test system: antibodies in sera from SARS patients (sera 1a, 1b, 2, 6, 37, 62, London, SARS-yellow, SARS-green); type: binding, human; parameters: Binding of serum 6 to linear peptides of protein X1 of SARS-CoV Urbani / Binding of serum 37 to linear peptides of protein X1 of SARS-CoV Urbani / Binding of serum 6 to looped/cyclic peptide (PEPSCAN-ELISA) / Binding of serum 37 to looped/cyclic peptide (PEPSCAN-ELISA) / Binding of serum 37 to looped/cyclic peptides of protein X1 of SARS-CoV Urbani / Binding of serum 6 to linear peptides of protein X2 / Binding of serum 37 to linear peptides of protein X2 / Binding of serum 37 to looped/cyclic peptides of protein X2 of SARS-CoV Urbani / Binding of serum 6 to linear peptides of protein M of SARS-CoV Urbani / Binding of serum 37 to linear peptides of protein M of SARS-CoV Urbani / Binding of serum 6 to looped/cyclic peptides of protein M of SARS-CoV Urbani / Binding of serum 37 to looped/cyclic peptides of protein M of SARS-CoV Urbani / Binding of serum 6 to linear peptides of protein X3 of SARS-CoV Urbani / Binding of serum 37 to linear peptides of protein X3 of SARS-CoV Urbani / Binding of serum 37 to looped/cyclic peptides of protein X3 of SARS-CoV Urbani / Binding of serum 6 to linear peptides of protein X4 of SARS-CoV Urbani / Binding of serum 37 to linear peptides of protein X4 of SARS-CoV Urbani / Binding of serum 37 to looped/cyclic peptides of protein X4 of SARS-CoV Urbani / Binding of serum 6 to linear peptides of protein X5 of SARS-CoV Urbani / Binding of serum 37 to linear peptides of protein X5 of SARS-CoV Urbani / Binding of serum 37 to looped/cyclic peptides of protein X5 of SARS-CoV Urbani / Binding of serum 6 to linear peptides of protein N of SARS-CoV Urbani / Binding of serum 37 to linear peptides of protein N of SARS-CoV Urbani / Binding of serum 6 to linear peptide (PEPSCAN-ELISA) / Binding of serum 1a to looped/cyclic peptides of protein N of SARS-CoV Urbani / Binding of serum 1b to looped/cyclic peptides of protein N of SARS-CoV Urbani / Binding of serum 2 to looped/cyclic peptides of protein N of SARS-CoV Urbani / Binding of serum 6 to looped/cyclic peptides of protein N of SARS-CoV Urbani / Binding of serum 37 to looped/cyclic peptides of protein N of SARS-CoV Urbani / Binding of serum 62 to looped/cyclic peptides of protein N of SARS-CoV Urbani / Binding of serum London to looped/cyclic peptides of protein N of SARS-CoV Urbani / Binding of serum SARS-green to looped/cyclic peptides of protein N of SARS-CoV Urbani: unit not given here
Sequence,Binding of a rabbit serum to linear peptides of protein N of SARS-CoV Urbani (Rabbit serum linear peptides) [1],Binding of a rabbit serum to looped/cyclic peptides of protein N of SARS-CoV Urbani (Rabbit serum looped peptides) [1],Binding of antibody 03-018 to linear peptides of the N protein of SARS-CoV Urbani [2],Binding of antibody 03-018 to looped/cyclic peptides of the N protein of SARS-CoV Urbani [2],Binding of Control Serum Blood-Bank to Looped peptides [3],Binding of Control serum Blood-bank to linear peptides [3],Binding of Control serum LUMC to linear peptides [3],Binding of Control serum LUMC to looped peptides [3],Binding of serum 1a to linear peptides of protein N of SARS-CoV Urbani [4],Binding of serum 1a to looped/cyclic peptides of protein N of SARS-CoV Urbani [4],Binding of serum 1b to linear peptides of protein N of SARS-CoV Urbani [4],Binding of serum 1b to looped/cyclic peptides of protein N of SARS-CoV Urbani [4],Binding of serum 2 to linear peptides of protein N of SARS-CoV Urbani [4],Binding of serum 2 to looped/cyclic peptides of protein N of SARS-CoV Urbani [4],Binding of serum 6 to linear peptides of protein N of SARS-CoV Urbani [4],Binding of serum 6 to looped/cyclic peptides of protein N of SARS-CoV Urbani [4],Binding of serum 37 to linear peptides of protein N of SARS-CoV Urbani [4],Binding of serum 37 to looped/cyclic peptides of protein N of SARS-CoV Urbani [4],Binding of serum 62 to linear peptides of protein N of SARS-CoV Urbani [4],Binding of serum 62 to looped/cyclic peptides of protein N of SARS-CoV Urbani [4],also measured
GGDGKMKELSPRWYF,0.1,0.5,0.1,0.2,0.8,0.8,0.7,0.7,0.3,0.3,0.1,0.2,0.2,0.6,0.2,0.3,0.6,0.6,0.7,0.6,Binding of serum London to linear peptides of protein N of SARS-CoV Urbani [4]: 0.4; Binding of serum London to looped/cyclic peptides of protein N of SARS-CoV Urbani [4]: 0.5; Binding of serum SARS-green to linear peptides of protein N of SARS-CoV Urbani [4]: 0.2; Binding of serum SARS-green to looped/cyclic peptides of protein N of SARS-CoV Urbani [4]: 0.5; Binding of serum SARS-yellow to linear peptides of protein N of SARS-CoV Urbani [4]: 0.7; Binding of serum SARS-yellow to looped/cyclic peptides of protein N of SARS-CoV Urbani [4]: 0.6
GGPTDSTDNNQNGGR,0.1,0.1,0.1,0.2,0.5,0.7,0.8,0.5,0.3,0.3,0.1,0.1,0.3,0.4,0.2,0.2,0.7,0.5,0.7,0.3,Binding of serum London to linear peptides of protein N of SARS-CoV Urbani [4]: 0.6; Binding of serum London to looped/cyclic peptides of protein N of SARS-CoV Urbani [4]: 0.3; Binding of serum SARS-green to linear peptides of protein N of SARS-CoV Urbani [4]: 0.6; Binding of serum SARS-green to looped/cyclic peptides of protein N of SARS-CoV Urbani [4]: 0.2; Binding of serum SARS-yellow to linear peptides of protein N of SARS-CoV Urbani [4]: 0.6; Binding of serum SARS-yellow to looped/cyclic peptides of protein N of SARS-CoV Urbani [4]: 0.2

# — patent publication US20070128217A1 (priority 2003, published 2007)
